Assays:
[1] = test system: antibodies in sera from SARS patients (sera 1a, 1b, 2, 6, 37, 62, London, SARS-yellow, SARS-green); assay type: binding, human; design: Binding of serum 6 to linear peptides of protein X1 of SARS-CoV Urbani / Binding of serum 37 to linear peptides of protein X1 of SARS-CoV Urbani / Binding of serum 6 to looped/cyclic peptide (PEPSCAN-ELISA) / Binding of serum 37 to looped/cyclic peptide (PEPSCAN-ELISA) / Binding of serum 37 to looped/cyclic peptides of protein X1 of SARS-CoV Urbani / Binding of serum 6 to linear peptides of protein X2 / Binding of serum 37 to linear peptides of protein X2 / Binding of serum 37 to looped/cyclic peptides of protein X2 of SARS-CoV Urbani / Binding of serum 6 to linear peptides of protein M of SARS-CoV Urbani / Binding of serum 37 to linear peptides of protein M of SARS-CoV Urbani / Binding of serum 6 to looped/cyclic peptides of protein M of SARS-CoV Urbani / Binding of serum 37 to looped/cyclic peptides of protein M of SARS-CoV Urbani / Binding of serum 6 to linear peptides of protein X3 of SARS-CoV Urbani / Binding of serum 37 to linear peptides of protein X3 of SARS-CoV Urbani / Binding of serum 37 to looped/cyclic peptides of protein X3 of SARS-CoV Urbani / Binding of serum 6 to linear peptides of protein X4 of SARS-CoV Urbani / Binding of serum 37 to linear peptides of protein X4 of SARS-CoV Urbani / Binding of serum 37 to looped/cyclic peptides of protein X4 of SARS-CoV Urbani / Binding of serum 6 to linear peptides of protein X5 of SARS-CoV Urbani / Binding of serum 37 to linear peptides of protein X5 of SARS-CoV Urbani / Binding of serum 37 to looped/cyclic peptides of protein X5 of SARS-CoV Urbani / Binding of serum 6 to linear peptides of protein N of SARS-CoV Urbani / Binding of serum 37 to linear peptides of protein N of SARS-CoV Urbani / Binding of serum 6 to linear peptide (PEPSCAN-ELISA) / Binding of serum 1a to looped/cyclic peptides of protein N of SARS-CoV Urbani / Binding of serum 1b to looped/cyclic peptides of protein N of SARS-CoV Urbani / Binding of serum 2 to looped/cyclic peptides of protein N of SARS-CoV Urbani / Binding of serum 6 to looped/cyclic peptides of protein N of SARS-CoV Urbani / Binding of serum 37 to looped/cyclic peptides of protein N of SARS-CoV Urbani / Binding of serum 62 to looped/cyclic peptides of protein N of SARS-CoV Urbani / Binding of serum London to looped/cyclic peptides of protein N of SARS-CoV Urbani / Binding of serum SARS-green to looped/cyclic peptides of protein N of SARS-CoV Urbani: unit not given here
[2] = test system: control sera (pooled serum of ten healthy LUMC hospital workers; commercial negative donor pooled serum from the Dutch bloodbank); assay type: binding, human; design: Binding of Control serum LUMC to linear peptides / Binding of Control serum Blood-bank to linear peptides / Binding of Control serum LUMC to looped peptides / Binding of Control Serum Blood-Bank to Looped peptides / Binding of Control serum LUMC to linear peptides of the protein M of SARS-CoV Urbani / Binding of Control serum Blood-bank to linear peptides of the protein M of SARS-CoV Urbani / Binding of Control serum LUMC to looped peptides of the protein M of SARS-CoV Urbani / Binding of Control Serum Blood-Bank to Looped peptides of the protein M of SARS-CoV Urbani: unit not given here
[3] = test system: rabbit serum obtained by immunizing a rabbit with the SARS-CoV strain Frankfurt 1; assay type: binding; design: Binding of a rabbit serum to linear peptides / Binding of a rabbit serum to looped peptides / Rabbit serum linear peptides / Rabbit serum looped peptides / Binding of a rabbit serum to linear peptides of protein N of SARS-CoV Urbani (Rabbit serum linear peptides) / Binding of a rabbit serum to looped/cyclic peptides of protein N of SARS-CoV Urbani (Rabbit serum looped peptides): unit not given here
[4] = test system: recombinant human anti-SARS-CoV antibody 03-018; assay type: binding; design: Binding of antibody 03-018 to linear peptides of the N protein of SARS-CoV Urbani / Binding of antibody 03-018 to looped/cyclic peptides of the N protein of SARS-CoV Urbani: unit not given here

TQHGKEELRFPRGQG
0.9: Binding of Control serum Blood-bank to linear peptides [2]
0.1: Binding of a rabbit serum to linear peptides of protein N of SARS-CoV Urbani (Rabbit serum linear peptides) [3] | Binding of antibody 03-018 to linear peptides of the N protein of SARS-CoV Urbani [4]
0.2: Binding of serum 1b to linear peptides of protein N of SARS-CoV Urbani [1] | Binding of serum 1b to looped/cyclic peptides of protein N of SARS-CoV Urbani [1] | Binding of serum 6 to linear peptides of protein N of SARS-CoV Urbani [1] | Binding of serum 6 to looped/cyclic peptides of protein N of SARS-CoV Urbani [1] | Binding of serum SARS-green to looped/cyclic peptides of protein N of SARS-CoV Urbani [1] | Binding of antibody 03-018 to looped/cyclic peptides of the N protein of SARS-CoV Urbani [4]
0.4: Binding of serum London to looped/cyclic peptides of protein N of SARS-CoV Urbani [1] | Binding of serum SARS-green to linear peptides of protein N of SARS-CoV Urbani [1] | Binding of serum SARS-yellow to looped/cyclic peptides of protein N of SARS-CoV Urbani [1]
0.3: Binding of serum 1a to linear peptides of protein N of SARS-CoV Urbani [1] | Binding of serum 1a to looped/cyclic peptides of protein N of SARS-CoV Urbani [1] | Binding of serum 2 to linear peptides of protein N of SARS-CoV Urbani [1] | Binding of serum 2 to looped/cyclic peptides of protein N of SARS-CoV Urbani [1] | Binding of serum 62 to looped/cyclic peptides of protein N of SARS-CoV Urbani [1] | Binding of a rabbit serum to looped/cyclic peptides of protein N of SARS-CoV Urbani (Rabbit serum looped peptides) [3]
0.7: Binding of serum 37 to linear peptides of protein N of SARS-CoV Urbani [1]
0.8: Binding of serum 62 to linear peptides of protein N of SARS-CoV Urbani [1] | Binding of Control serum LUMC to linear peptides [2]
0.6: Binding of serum SARS-yellow to linear peptides of protein N of SARS-CoV Urbani [1] | Binding of Control Serum Blood-Bank to Looped peptides [2] | Binding of Control serum LUMC to looped peptides [2]
0.5: Binding of serum 37 to looped/cyclic peptides of protein N of SARS-CoV Urbani [1] | Binding of serum London to linear peptides of protein N of SARS-CoV Urbani [1]

GIVWVATEGALNTPK
0.3: Binding of serum 1a to linear peptides of protein N of SARS-CoV Urbani [1] | Binding of serum 1a to looped/cyclic peptides of protein N of SARS-CoV Urbani [1] | Binding of serum 6 to linear peptides of protein N of SARS-CoV Urbani [1] | Binding of serum SARS-green to looped/cyclic peptides of protein N of SARS-CoV Urbani [1] | Binding of serum SARS-yellow to looped/cyclic peptides of protein N of SARS-CoV Urbani [1]
0.9: Binding of serum 37 to linear peptides of protein N of SARS-CoV Urbani [1] | Binding of serum 62 to linear peptides of protein N of SARS-CoV Urbani [1]
0.8: Binding of serum SARS-yellow to linear peptides of protein N of SARS-CoV Urbani [1]
0.1: Binding of serum 1b to looped/cyclic peptides of protein N of SARS-CoV Urbani [1] | Binding of antibody 03-018 to linear peptides of the N protein of SARS-CoV Urbani [4]
1.0: Binding of serum SARS-green to linear peptides of protein N of SARS-CoV Urbani [1] | Binding of Control serum Blood-bank to linear peptides [2] | Binding of Control serum LUMC to linear peptides [2]
0.6: Binding of serum London to linear peptides of protein N of SARS-CoV Urbani [1]
0.2: Binding of serum 1b to linear peptides of protein N of SARS-CoV Urbani [1] | Binding of serum 6 to looped/cyclic peptides of protein N of SARS-CoV Urbani [1] | Binding of a rabbit serum to linear peptides of protein N of SARS-CoV Urbani (Rabbit serum linear peptides) [3] | Binding of antibody 03-018 to looped/cyclic peptides of the N protein of SARS-CoV Urbani [4]
0.5: Binding of serum 2 to linear peptides of protein N of SARS-CoV Urbani [1] | Binding of serum 37 to looped/cyclic peptides of protein N of SARS-CoV Urbani [1] | Binding of Control Serum Blood-Bank to Looped peptides [2] | Binding of Control serum LUMC to looped peptides [2] | Binding of a rabbit serum to looped/cyclic peptides of protein N of SARS-CoV Urbani (Rabbit serum looped peptides) [3]
0.4: Binding of serum 2 to looped/cyclic peptides of protein N of SARS-CoV Urbani [1] | Binding of serum 62 to looped/cyclic peptides of protein N of SARS-CoV Urbani [1] | Binding of serum London to looped/cyclic peptides of protein N of SARS-CoV Urbani [1]

SSSRSRGNSRNSTPG
0.3: Binding of serum 2 to looped/cyclic peptides of protein N of SARS-CoV Urbani [1] | Binding of serum 62 to looped/cyclic peptides of protein N of SARS-CoV Urbani [1] | Binding of serum London to looped/cyclic peptides of protein N of SARS-CoV Urbani [1]
0.4: Binding of serum 1a to linear peptide (PEPSCAN-ELISA) [1] | Binding of serum 37 to looped/cyclic peptides of protein N of SARS-CoV Urbani [1] | Binding of a rabbit serum to looped/cyclic peptides of protein N of SARS-CoV Urbani (Rabbit serum looped peptides) [3]
0.1: Binding of serum 1b to looped/cyclic peptides of protein N of SARS-CoV Urbani [1] | Binding of serum 6 to linear peptide (PEPSCAN-ELISA) [1] | Binding of serum SARS-green to looped/cyclic peptides of protein N of SARS-CoV Urbani [1] | Binding of serum SARS-yellow to looped/cyclic peptides of protein N of SARS-CoV Urbani [1] | Binding of a rabbit serum to linear peptides of protein N of SARS-CoV Urbani (Rabbit serum linear peptides) [3] | Binding of antibody 03-018 to linear peptides of the N protein of SARS-CoV Urbani [4]
0.6: Binding of serum SARS-yellow to linear peptide (PEPSCAN-ELISA) [1] | Binding of Control serum LUMC to linear peptides [2]
0.2: Binding of serum 1a to looped/cyclic peptides of protein N of SARS-CoV Urbani [1] | Binding of serum 1b to linear peptide (PEPSCAN-ELISA) [1] | Binding of serum 2 to linear peptide (PEPSCAN-ELISA) [1] | Binding of serum 6 to looped/cyclic peptides of protein N of SARS-CoV Urbani [1] | Binding of serum SARS-green to linear peptide (PEPSCAN-ELISA) [1] | Binding of antibody 03-018 to looped/cyclic peptides of the N protein of SARS-CoV Urbani [4]
0.5: Binding of serum 37 to linear peptide (PEPSCAN-ELISA) [1] | Binding of serum 62 to linear peptide (PEPSCAN-ELISA) [1] | Binding of serum London to linear peptide (PEPSCAN-ELISA) [1] | Binding of Control Serum Blood-Bank to Looped peptides [2] | Binding of Control serum LUMC to looped peptides [2]
0.7: Binding of Control serum Blood-bank to linear peptides [2]

GETALALLLLDRLNQ
0.1: Binding of serum 1b to linear peptide (PEPSCAN-ELISA) [1] | Binding of serum 6 to linear peptide (PEPSCAN-ELISA) [1] | Binding of antibody 03-018 to linear peptides of the N protein of SARS-CoV Urbani [4]
0.5: Binding of serum 37 to linear peptide (PEPSCAN-ELISA) [1] | Binding of serum London to linear peptide (PEPSCAN-ELISA) [1] | Binding of serum London to looped/cyclic peptides of protein N of SARS-CoV Urbani [1]
0.4: Binding of serum 1a to looped/cyclic peptides of protein N of SARS-CoV Urbani [1] | Binding of serum 2 to looped/cyclic peptides of protein N of SARS-CoV Urbani [1]
0.6: Binding of serum 62 to linear peptide (PEPSCAN-ELISA) [1] | Binding of serum SARS-yellow to linear peptide (PEPSCAN-ELISA) [1] | Binding of serum SARS-yellow to looped/cyclic peptides of protein N of SARS-CoV Urbani [1] | Binding of Control serum Blood-bank to linear peptides [2] | Binding of Control serum LUMC to linear peptides [2] | Binding of a rabbit serum to looped/cyclic peptides of protein N of SARS-CoV Urbani (Rabbit serum looped peptides) [3]
0.3: Binding of serum SARS-green to looped/cyclic peptides of protein N of SARS-CoV Urbani [1] | Binding of antibody 03-018 to looped/cyclic peptides of the N protein of SARS-CoV Urbani [4]
0.2: Binding of serum 1a to linear peptide (PEPSCAN-ELISA) [1] | Binding of serum 1b to looped/cyclic peptides of protein N of SARS-CoV Urbani [1] | Binding of serum 2 to linear peptide (PEPSCAN-ELISA) [1] | Binding of serum 6 to looped/cyclic peptides of protein N of SARS-CoV Urbani [1] | Binding of serum SARS-green to linear peptide (PEPSCAN-ELISA) [1] | Binding of a rabbit serum to linear peptides of protein N of SARS-CoV Urbani (Rabbit serum linear peptides) [3]
0.7: Binding of serum 37 to looped/cyclic peptides of protein N of SARS-CoV Urbani [1] | Binding of serum 62 to looped/cyclic peptides of protein N of SARS-CoV Urbani [1] | Binding of Control Serum Blood-Bank to Looped peptides [2] | Binding of Control serum LUMC to looped peptides [2]

Reference: patent US20070128217A1 (priority 2003, published 2007)
